Data from PubChem BioAssay (NCI).
Several values for one entry are separate records, joined by “and”; a condition that tells them apart may be missing. Equal values may be shown once.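 All cell lines were grown in 96-well plates and treated with compound for 48 hours. GI50 is the concentration that inhibits growth by half. TGI marks complete inhibition of growth.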

Columns and labels:
Assay in all cases: NCI tumour cell line growth inhibition, 48 h
CAKI-1 renal = tested on: CAKI-1 renal
SK-MEL-28 melanoma = tested on: SK-MEL-28 melanoma
RPMI-8226 leukemia = tested on: RPMI-8226 leukemia
RXF-631 renal = tested on: RXF-631 renal
HL-60(TB) leukemia = tested on: HL-60(TB) leukemia
NCI-H460 lung = tested on: NCI-H460 lung
HOP-18 NSCLC = tested on: HOP-18 NSCLC
IGROV1 ovarian = tested on: IGROV1 ovarian
MDA-MB-231 breast = tested on: MDA-MB-231 breast
HT29 colon = tested on: HT29 colon
T-47D breast = tested on: T-47D breast
SNB-19 CNS = tested on: SNB-19 CNS
SF-539 CNS = tested on: SF-539 CNS
UACC-62 melanoma = tested on: UACC-62 melanoma
HOP-92 NSCLC = tested on: HOP-92 NSCLC
SN12K1 renal = tested on: SN12K1 renal
COLO 205 colon = tested on: COLO 205 colon
HCT-116 colon = tested on: HCT-116 colon
MDA-N = tested on: MDA-N
KM12 colon = tested on: KM12 colon

## O=NN(CCCl)C(=O)NCCCl
CAKI-1 renal
  GI50: 44.9 µM and 186 µM
  TGI: 103 µM and 150 µM and > 278 µM
SK-MEL-28 melanoma
  TGI: 147 µM and 165 µM
RPMI-8226 leukemia
  GI50: 34.3 µM and 118 µM
  TGI: 120 µM and 198 µM and 260 µM
RXF-631 renal
  TGI: 203 µM
HL-60(TB) leukemia
  GI50: 30.5 µM and 11.3 µM
  TGI: 89.3 µM and 67.3 µM and 28.9 µM
NCI-H460 lung
  GI50: 62.4 µM
  TGI: 250 µM and 168 µM
HOP-18 NSCLC
  TGI: 160 µM
IGROV1 ovarian
  GI50: 55.9 µM and 196 µM
  TGI: 176 µM and 150 µM and > 374 µM
MDA-MB-231 breast
  GI50: 61.8 µM and 224 µM
  TGI: 164 µM and 160 µM and > 295 µM
HT29 colon
  GI50: 56.4 µM and 209 µM
  TGI: 133 µM and 166 µM and > 361 µM
T-47D breast
  GI50: 74.7 µM and 234 µM
  TGI: 250 µM and 220 µM and > 331 µM
SNB-19 CNS
  GI50: 61.1 µM and 169 µM
  TGI: 250 µM and 168 µM and > 380 µM
SF-539 CNS
  GI50: 31 µM and 84.1 µM
  TGI: 92.6 µM and 116 µM and 190 µM
UACC-62 melanoma
  GI50: 44.9 µM and > 151 µM
  TGI: 169 µM and 91.9 µM and > 260 µM
HOP-92 NSCLC
  GI50: 193 µM
  TGI: 151 µM and > 262 µM
SN12K1 renal
  TGI: 127 µM
COLO 205 colon
  GI50: 47.2 µM and 202 µM
  TGI: 90.2 µM and 144 µM and > 286 µM
HCT-116 colon
  GI50: 62.5 µM and 112 µM
  TGI: 155 µM and 156 µM and 256 µM
MDA-N
  GI50: 210 µM
  TGI: 158 µM and > 301 µM
KM12 colon
  GI50: > 500 µM
  TGI: 250 µM and 194 µM and > 500 µM
